In US4966900A, “Cephalosporin β-lactam compound and medicinal composition” (priority 1986, dated 1990):
Converted amounts (≈) assume the structure as drawn. Counter-ions that a name gives are not always drawn. Like-named read-outs stand apart in the source and are kept apart here. One block for each compound: values may come before it.

Tests used:
[1] = tested on: E. cloacae 1Y247; experiment: MIC; assay type: cell-based
Protocol: (§1) The minimum inhibition concentrations (MIC) of the compounds obtained in the respective examples described above were measured according to the standard method of Japanese Chemotherapy Association.

[2] = tested on: S. aureus IAA498; experiment: MIC; assay type: cell-based; conditions: Staphylococcus aureus, Table 5
Protocol: as §1

[3] = tested on: A. calcoaceticu OF1063; experiment: MIC; assay type: cell-based; conditions: Table 2, sodium salt
Protocol: (§2) The minimum inhibition concentrations (MIC) of the compounds obtained in Example 1 and Example 2 were measured according to the standard method of Japanese Chemotherapy Association.

[4] = tested on: A. xylosoxidans OF1001; experiment: MIC; assay type: cell-based; conditions: Achromobacter xylosoxidans, Table 2, sodium salt
Protocol: as §2

[5] = tested on: E. coli NIHJ JC-2; experiment: MIC; assay type: cell-based; conditions: Escherichia coli, NIHJJC2, Table 2, sodium salt
Protocol: as §2

[6] = tested on: S. aureus Smith; experiment: MIC; conditions: Staphylococcus aureus
[7] = tested on: E. coli ML4707; experiment: MIC; conditions: Escherichia coli, ML4707, E. coli ML4707
[8] = tested on: E. coli GN5482; experiment: MIC; conditions: Escherichia coli, GN5482, E. coli GN5482
[9] = tested on: K. pneumoniae 4at521; experiment: MIC
[10] = tested on: E. colacae GN7471; experiment: MIC
[11] = tested on: E. cloacae 908RN; experiment: MIC; conditions: Enterobacter cloacae
[12] = tested on: C. freundii GN7391; experiment: MIC; conditions: Citrobacter freundii, GN7391, C. freundii GN7391
[13] = tested on: S. marcescens GN10857; experiment: MIC; conditions: Serratia marcescens, GN10857, S. marcescens GN10857
[14] = tested on: P. vulgaris GN7919; experiment: MIC
[15] = tested on: P. aeruginosa GN10362; experiment: MIC
[16] = tested on: P. aeruginosa 4au542; experiment: MIC; conditions: Pseudomonas aeruginosa, 4AU542, P. aeruginosa 4au542
[17] = tested on: P. aeruginosa 5D58-1; experiment: MIC; conditions: Pseudomonas aeruginosa, 5D581, P. aeruginosa 5D58-1
[18] = tested on: P. cepacia OF189; experiment: MIC; conditions: Burkholderia cepacia, OF189, P. cepacia OF189
[19] = tested on: P. maltophilia OF247; experiment: MIC; conditions: Stenotrophomonas maltophilia
[20] = tested on: E. cloacae 5D52-2; experiment: MIC
[21] = tested on: E. cloacae 5D63-2; experiment: MIC
[22] = tested on: C. freundii 5D60-1; experiment: MIC
[23] = tested on: C. freundii 1R523; experiment: MIC
[24] = tested on: C. freundii 1R524; experiment: MIC
[25] = tested on: C. freundii 1R526; experiment: MIC
[26] = tested on: C. freundii 1R527; experiment: MIC
[27] = tested on: C. freundii 1U589; experiment: MIC
[28] = tested on: C. freundii 1U692; experiment: MIC
[29] = in vivo; design: species or system Macaco; conditions: monkey, 20 mg/kg
Protocol: Each of 20 mg/kg of the compounds obtained in Example 2, Example 25 and Example 28 was administered parenterally to Macaco and the half-time in blood was measured.
The concentrations of the compounds were measured according to HPLC method. Novapack C18 or Microbondapack C18 (trade name, produced by Waters Co.) was used as a column. Further, cefpiramide was used as a control drug.

[30] = tested on: E. cloacae 1V25; experiment: MIC; conditions: Enterobacter cloacae
[31] = Enterobacter cloacae, Table 3, sodium salt, read-out: MIC
[32] = E. cloacae 908RN, Table 3, sodium salt
[33] = E. colacae 908RN, Table 2, sodium salt
[34] = Pseudomonas aeruginosa, GN10362

MIC [1, 31]: 25 µg/mL | MIC ([1]; Table 6): 25 µg/mL | MIC [2]: 6.25 µg/mL | MIC [3]: 12.5 µg/mL | MIC [4]: 0.78 µg/mL | MIC [5]: 0.1 µg/mL | MIC ([6]; Table 2, sodium salt): 0.78 µg/mL | MIC ([6]; Table 5): 3.13 µg/mL | MIC ([7]; Table 2, sodium salt): 0.012 µg/mL | MIC ([7]; Table 5): < 0.006 µg/mL | MIC ([8]; Table 2, sodium salt): 0.1 µg/mL | MIC ([8]; Table 5): 0.012 µg/mL | MIC ([9]; K. pneumoniae 4at521, Table 5): 0.012 µg/mL | MIC ([9]; Klebsiella pneumoniae, 4AT521): 0.012 µg/mL | MIC ([10]; Table 2, sodium salt): 3.13 µg/mL | MIC ([10]; Table 5): 1.56 µg/mL | MIC [11, 32]: 3.13 µg/mL | MIC ([11]; E. cloacae 908RN, Table 6): 3.13 µg/mL | MIC [11, 33]: 3.13 µg/mL | MIC ([11]; E. colacae 908RN, Table 5): 3.13 µg/mL | MIC ([12]; Table 2, sodium salt): 12.5 µg/mL | MIC ([12]; Table 3, sodium salt): 25 µg/mL | MIC ([12]; Table 5): 6.25 µg/mL | MIC ([12]; Table 6): 25 µg/mL | MIC ([13]; Table 2, sodium salt): 1.56 µg/mL | MIC ([13]; Table 5): 0.39 µg/mL | MIC ([14]; P. vulgaris Gn7919, Table 5): 0.78 µg/mL | MIC ([14]; Proteus vulgaris, GN7919): 0.78 µg/mL | MIC ([15]; P. aeruginosa GN10362, Table 5): 0.1 µg/mL | MIC [15, 34]: 0.1 µg/mL | MIC ([16]; Table 2, sodium salt): 0.1 µg/mL | MIC ([16]; Table 5): 0.2 µg/mL | MIC ([17]; Table 2, sodium salt): 0.1 µg/mL | MIC ([17]; Table 5): 0.2 µg/mL | MIC ([18]; Table 2, sodium salt): 0.025 µg/mL | MIC ([18]; Table 5): 0.012 µg/mL | MIC ([19]; Table 2, sodium salt): 0.78 µg/mL | MIC ([19]; Table 5): 0.39 µg/mL | MIC ([20]; E. cloacae 5D52-2, Table 6): 0.2 µg/mL | MIC ([20]; Enterobacter cloacae, 5D522): 0.2 µg/mL | MIC ([21]; E. cloacae 5D63-2, Table 6): 3.13 µg/mL | MIC ([21]; Enterobacter cloacae, 5D632): 3.13 µg/mL | MIC ([22]; C. freundii 5D60-1, Table 6): 3.13 µg/mL | MIC ([22]; Citrobacter freundii, 5D601): 3.13 µg/mL | MIC ([23]; C. freundii 1R523, Table 6): 0.78 µg/mL | MIC ([23]; Citrobacter freundii, 1R523): 0.78 µg/mL | MIC ([24]; C. freundii 1R524, Table 6): 0.78 µg/mL | MIC ([24]; Citrobacter freundii, 1R524): 0.78 µg/mL | MIC ([25]; C. freundii 1R526, Table 6): 1.56 µg/mL | MIC ([25]; Citrobacter freundii, 1R526): 1.56 µg/mL | MIC ([26]; C. freundii 1R527, Table 6): 0.78 µg/mL | MIC ([26]; Citrobacter freundii, 1R527): 0.78 µg/mL | MIC ([27]; C. freundii 1U589, Table 6): 1.56 µg/mL | MIC ([27]; Citrobacter freundii, 1U589): 1.56 µg/mL | MIC ([28]; C. freundii 1U692, Table 6): 3.13 µg/mL | MIC ([28]; Citrobacter freundii, 1U692): 3.13 µg/mL
Compound: Cc1cc(SCC2=C(C(=O)O)N3C(=O)C(NC(=O)C(=NOC(C)(C)C(=O)NNC(=O)c4ccc(O)c(O)c4)c4csc(N)n4)C3SC2)n2ncnc2n1 (stereo not drawn) [Example 12, 7-{2-[2-Amino-1,3-thiazol-4-yl]-2-[1-(3-(3,4-dihydroxybenzoyl)carbazoyl)-1-methylethoxyimino]acetamide}-3-[(5-methyl-s-triazolo[1,5-a]-pyrimidin-7-yl)thiomethyl]-3-cephem-4-carboxylic acid.hydrochloride]

half-life [29]: 5.3 h | MIC [1, 31]: 6.25 µg/mL | MIC [3]: 3.13 µg/mL | MIC [4]: 0.78 µg/mL | MIC [5]: 0.1 µg/mL | MIC ([6]; Table 2, sodium salt): 6.25 µg/mL | MIC ([7]; Table 2, sodium salt): 0.01 µg/mL | MIC ([8]; Table 2, sodium salt): 0.1 µg/mL | MIC ([9]; Klebsiella pneumoniae, 4AT521): 0.012 µg/mL (≈ 0.0145 µM) | MIC ([10]; Table 2, sodium salt): 6.25 µg/mL | MIC [11, 32]: 3.13 µg/mL | MIC [11, 33]: 1.56 µg/mL | MIC ([12]; Table 2, sodium salt): 12.5 µg/mL | MIC ([12]; Table 3, sodium salt): 12.5 µg/mL | MIC ([13]; Table 2, sodium salt): 0.2 µg/mL | MIC ([14]; Proteus vulgaris, GN7919): 0.78 µg/mL (≈ 0.942 µM) | MIC [15, 34]: 0.2 µg/mL (≈ 0.242 µM) | MIC ([16]; Table 2, sodium salt): 0.2 µg/mL | MIC ([17]; Table 2, sodium salt): 0.39 µg/mL | MIC ([18]; Table 2, sodium salt): < 0.006 µg/mL | MIC ([19]; Table 2, sodium salt): 0.2 µg/mL | MIC ([20]; Enterobacter cloacae, 5D522): 0.2 µg/mL (≈ 0.242 µM) | MIC ([21]; Enterobacter cloacae, 5D632): 0.78 µg/mL (≈ 0.942 µM) | MIC [30]: 6.25 µg/mL (≈ 7.55 µM) | MIC ([22]; Citrobacter freundii, 5D601): 1.56 µg/mL (≈ 1.88 µM) | MIC ([23]; Citrobacter freundii, 1R523): 1.56 µg/mL (≈ 1.88 µM) | MIC ([24]; Citrobacter freundii, 1R524): 0.78 µg/mL (≈ 0.942 µM) | MIC ([25]; Citrobacter freundii, 1R526): 0.78 µg/mL (≈ 0.942 µM) | MIC ([26]; Citrobacter freundii, 1R527): 0.78 µg/mL (≈ 0.942 µM) | MIC ([27]; Citrobacter freundii, 1U589): 0.78 µg/mL (≈ 0.942 µM) | MIC ([28]; Citrobacter freundii, 1U692): 1.56 µg/mL (≈ 1.88 µM)
Compound: Cc1cc(SCC2=C(C(=O)O)N3C(=O)C(NC(=O)C(=NOC(C)(C)C(=O)NNC(=O)c4ccc(O)c(O)c4)c4csc(N)n4)C3SC2)n2nc(C(=O)O)nc2n1 (stereo not drawn) [Example 2]
